{"source": "patent US20090312521A1", "about": "(priority 2004, published 2009)", "key": {"[1]": {"test_system": "Salmonella typhimurium Rb", "settings": "murium Rb"}, "Salmonella typhimurium": {"test_system": "Salmonella typhimurium", "settings": "murium"}}, "note": "Residues, ends and D or L forms follow the SMILES beside them."}
{"compound": "CC[C@H](C)[C@H](NC(=O)[C@@H]1CCCN1C(=O)[C@H](CCCNC(=N)N)NC(=O)[C@@H]1CCCN1C(=O)[C@H](Cc1cnc[nH]1)NC(=O)[C@H](CO)NC(=O)[C@@H](NC(=O)[C@@H]1CCCN1C(=O)[C@H](CCCNC(=N)N)NC(=O)[C@@H]1CCCN1C(=O)[C@H](CO)NC(=O)[C@H](Cc1ccc(O)cc1)NC(=O)[C@@H]1CCCN1C(=O)[C@H](CCCNC(=N)N)NC(=O)[C@@H]1CCCN1C(=O)[C@H](CCCCN)NC(=O)CN)[C@@H](C)O)C(=O)N[C@@H](CCCNC(=N)N)C(=O)N[C@H](C(=O)O)C(C)C", "note": "[Drosocin] (H-GKPRPYSPRPTSHPRPIRV-OH)", "values": [{"measurement": "MIC", "setting": "Salmonella enteritidis", "value": 50, "unit": "µM"}, {"measurement": "MIC", "setting": "Erwinia herbicola", "value": 12.5, "unit": "µM"}, {"measurement": "MIC", "setting": "[1]", "value": 50, "unit": "µM"}, {"measurement": "MIC", "setting": "E. coli O157: H7", "value": 25, "unit": "µM"}, {"measurement": "MIC", "setting": "Shigella sonnei", "value": 100, "unit": "µM"}, {"measurement": "MIC", "setting": "Erwinia chrysanthemi", "value": 100, "unit": "µM"}, {"measurement": "MIC", "setting": "Salmonella give", "value": 25, "unit": "µM"}, {"measurement": "MIC", "setting": "Enterobacter aerogenes", "value": 100, "unit": "µM"}, {"measurement": "MIC", "setting": "Salmonella typhimurium", "value": 25, "unit": "µM"}, {"measurement": "MIC", "setting": "Klebsiella pneumoniae", "value": 100, "unit": "µM"}, {"measurement": "MIC", "setting": "Salmonella panama", "value": 25, "unit": "µM"}, {"measurement": "MIC", "setting": "Salmonella montevideo", "value": 50, "unit": "µM"}, {"measurement": "MIC", "setting": "Salmonella infantis", "value": 50, "unit": "µM"}]}
